In assay [1] the target is human somatostatin receptor subtype 5 (Homo sapiens, UniProt P35346). In words: cAMP assay for SST5R (inhibition of cAMP via human SST5 receptor). In general terms: cAMP levels reflect the balance of adenylyl cyclase and phosphodiesterase activity.
In assay [2] the target is T1, human somatostatin receptor subtype 2 (Homo sapiens, UniProt P30874).
T1 construct: expressed in transfected cells
The assay is described as follows: cAMP assay for SST2R (inhibition of cAMP via human SST2 receptor). The assay is classed as cell-based. The following applies: Table B, read-out: SST2 potency. The source says:
cAMP Assay Protocol for SST2R:

The mark [3] stands for this setting: read-out: SST5 potency, inhibition of cAMP via human SST5 receptor, Table B.
The mark [4] stands for this setting: SST5 over SST2, given as number (comparison compounds).

Read-outs that look alike come from different tables or passages of the source.

Sequence of human somatostatin receptor subtype 5 (P35346 whole entry): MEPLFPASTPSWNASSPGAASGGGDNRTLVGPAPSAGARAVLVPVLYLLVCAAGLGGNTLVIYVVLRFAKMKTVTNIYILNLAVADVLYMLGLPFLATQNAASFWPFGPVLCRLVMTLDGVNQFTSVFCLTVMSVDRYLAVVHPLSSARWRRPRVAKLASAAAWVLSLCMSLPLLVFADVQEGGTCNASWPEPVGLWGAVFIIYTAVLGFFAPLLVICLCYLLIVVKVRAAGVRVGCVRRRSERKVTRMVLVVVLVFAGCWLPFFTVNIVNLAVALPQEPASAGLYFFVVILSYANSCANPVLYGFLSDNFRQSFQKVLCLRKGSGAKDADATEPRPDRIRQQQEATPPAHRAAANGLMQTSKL
T1 sequence (P30874 whole entry): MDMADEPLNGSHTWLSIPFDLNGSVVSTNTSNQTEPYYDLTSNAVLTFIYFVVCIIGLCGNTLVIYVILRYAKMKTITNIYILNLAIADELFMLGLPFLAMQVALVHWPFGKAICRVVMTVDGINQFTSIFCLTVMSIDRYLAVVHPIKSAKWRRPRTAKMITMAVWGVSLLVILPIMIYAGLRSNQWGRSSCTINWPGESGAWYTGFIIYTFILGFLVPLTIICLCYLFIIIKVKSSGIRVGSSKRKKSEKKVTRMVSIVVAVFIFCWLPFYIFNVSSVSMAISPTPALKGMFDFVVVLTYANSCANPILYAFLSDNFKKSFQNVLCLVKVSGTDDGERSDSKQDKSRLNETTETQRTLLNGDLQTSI

As to `N#Cc1ccc(-c2cncc(-c3nc4cccc(F)c4[nH]3)c2N2CC[C@H](N)C2)s1` [Compound 2-26, 5-{4-[(3S)-3-aminopyrrolidin-1-yl]-5-(4-fluoro-1H-1,3-benzodiazol-2-yl)pyridin-3-yl}thiophene-2-carbonitrile], the EC50 was less than 0.01 µM in assay [1], less than 0.01 µM in assay [1] (setting [3]) and 0.1 to 1 µM in assay [2]. Moreover, the “Fold selectivity for SST5 vs SST2” value in assay [1] (SST5 over SST2, class symbols) is reported as “++ (++=100 to 499)”.
With `NC(=O)c1cccc(-c2cncc(-c3nc4c(F)ccc(F)c4[nH]3)c2N2CC[C@H](N)C2)c1` [Compound 2-43, 3-{4-[(3S)-3-aminopyrrolidin-1-yl]-5-(4,7-difluoro-1H-1,3-benzodiazol-2-yl)pyridin-3-yl}benzamide], the EC50 in assay [1] was 0.01 to 0.1 µM; in assay [1] (setting [3]) it was 0.01 to 0.1 µM; in assay [2], greater than 1 µM. In addition, the “Fold selectivity for SST5 vs SST2” value in assay [1] (SST5 over SST2, class symbols) is “+++ (+++=≥500)”.
Consider `CC1(N)CCN(c2c(-c3cc(F)cc(Cl)c3)cncc2-c2nc3cccc(F)c3[nH]2)C1` (centres unmarked) [Compound 2-4, 1-[3-(3-chloro-5-fluorophenyl)-5-(4-fluoro-1H-1,3-benzodiazol-2-yl)pyridin-4-yl]-3-methylpyrrolidin-3-amine], for which the EC50 is less than 0.01 µM in assay [1], less than 0.01 µM in assay [1] (setting [3]) and 0.01 to 0.1 µM in assay [2]. In addition, the “Fold selectivity for SST5 vs SST2” value in assay [1] (SST5 over SST2, class symbols) is on record as “++ (++=100 to 499)”.
As to `CC1(N)CCN(c2c(-c3cccc(Cl)c3)cncc2-c2nc3cccc(F)c3[nH]2)C1` (centres unmarked) [Compound 2-28, 1-[3-(3-chlorophenyl)-5-(4-fluoro-1H-1,3-benzodiazol-2-yl)pyridin-4-yl]-3-methylpyrrolidin-3-amine], the EC50 in assay [1] is less than 0.01 µM; in assay [1] (setting [3]) it was less than 0.01 µM; in assay [2] it was 0.01 to 0.1 µM. Further, the “Fold selectivity for SST5 vs SST2” value in assay [1] (SST5 over SST2, class symbols) is “++ (++=100 to 499)”.
Consider `C[C@]1(N)CCN(c2c(-c3ccnc(C#N)c3)cncc2-c2nc3cccc(C(F)(F)F)c3[nH]2)C1` [Compound 2-175, 4-[(3S)-3-amino-3-methylpyrrolidin-1-yl]-5-[7-(trifluoromethyl)-1H-1,3-benzodiazol-2-yl]-[3,4′-bipyridine]-2′-carbonitrile], for which the EC50 in assay [1] is less than 0.01 µM; in assay [1] (setting [3]), less than 0.01 µM; in assay [2] it was 0.1 to 1 µM. Besides, the “Fold selectivity for SST5 vs SST2” value in assay [1] (SST5 over SST2, class symbols) was “+++ (+++=≥500)”.
In the case of `C[C@]1(N)CCN(c2c(-c3ccnc(C#N)c3)cncc2-c2nc3cccc(Cl)c3[nH]2)C1` [Compound 2-163, 4-[(3S)-3-amino-3-methylpyrrolidin-1-yl]-5-(4-chloro-1H-1,3-benzodiazol-2-yl)-[3,4′-bipyridine]-2′-carbonitrile], the EC50 in assay [1] is less than 0.01 µM; in assay [1] (setting [3]), less than 0.01 µM; in assay [2], 0.1 to 1 µM. Also, the “Fold selectivity for SST5 vs SST2” value in assay [1] (SST5 over SST2, class symbols) is “+++ (+++=≥500)”.
For the compound `CC1(N)CCN(c2c(-c3ccc4cc[nH]c4c3)cncc2-c2nc3cccc(F)c3[nH]2)C1` (centres unmarked) [Compound 2-29, 1-[3-(4-fluoro-1H-1,3-benzodiazol-2-yl)-5-(1H-indol-6-yl)pyridin-4-yl]-3-methylpyrrolidin-3-amine], the results for the EC50 in assay [1], in assay [1] (setting [3]) and in assay [2] were less than 0.01 µM, less than 0.01 µM and 0.1 to 1 µM, respectively. Also, the “Fold selectivity for SST5 vs SST2” value in assay [1] (SST5 over SST2, class symbols) is “+ (+=10 to 99)”.
With `CC1(N)CCN(c2c(-c3cc(F)cc(OCC#N)c3)cncc2-c2nc3cccc(F)c3[nH]2)C1` (centres unmarked) [Compound 2-27, 2-{3-[4-(3-amino-3-methylpyrrolidin-1-yl)-5-(4-fluoro-1H-1,3-benzodiazol-2-yl)pyridin-3-yl]-5-fluorophenoxy}acetonitrile], the EC50 in assay [1] was less than 0.01 µM; in assay [1] (setting [3]), less than 0.01 µM; in assay [2] it was 0.1 to 1 µM. Moreover, in assay [1] (SST5 over SST2, class symbols), the “Fold selectivity for SST5 vs SST2” value is given as “++ (++=100 to 499)”.
Take `Cc1cccc(-c2cncc(-c3nc4cccc(C)c4[nH]3)c2N2CC[C@H](N)C2)c1` [Compound 2-146, (3S)-1-[3-(4-methyl-1H-1,3-benzodiazol-2-yl)-5-(3-methylphenyl)pyridin-4-yl]pyrrolidin-3-amine]: the EC50 was less than 0.01 µM in assay [1], less than 0.01 µM in assay [1] (setting [3]) and 0.1 to 1 µM in assay [2]. In assay [1] (SST5 over SST2, class symbols), the “Fold selectivity for SST5 vs SST2” value was “++ (++=100 to 499)”.
In the case of `Cc1ccnc2nc(-c3cncc(-c4cc(F)cc(C#N)c4)c3N3CC[C@](C)(N)C3)[nH]c12` [Compound 2-202, 3-{4-[(3S)-3-amino-3-methylpyrrolidin-1-yl]-5-{7-methyl-1H-imidazo[4,5-b]pyridin-2-yl}pyridin-3-yl}-5-fluorobenzonitrile], the EC50 is less than 0.01 µM in assay [1], less than 0.01 µM in assay [1] (setting [3]) and 0.1 to 1 µM in assay [2]. The “Fold selectivity for SST5 vs SST2” value in assay [1] (SST5 over SST2, class symbols) was “+++ (+++=≥500)”.
For `CCn1c(-c2cncc(-c3cccc(C#N)c3)c2N2CC[C@H](N)C2)nc2c(F)cccc21` [Compound 2-143, 3-{4-[(3S)-3-aminopyrrolidin-1-yl]-5-(1-ethyl-4-fluoro-1H-1,3-benzodiazol-2-yl)pyridin-3-yl}benzonitrile], the figures for the EC50 in assay [1], in assay [1] (setting [3]) and in assay [2] were less than 0.01 µM, less than 0.01 µM and 0.1 to 1 µM, respectively. In addition, in assay [1] (SST5 over SST2, class symbols), the “Fold selectivity for SST5 vs SST2” value was “+++ (+++=≥500)”.
For `Cc1cccc2nc(-c3cncc(-c4cc(F)c(F)c(C#N)c4)c3N3CC[C@H](N)C3)[nH]c12` [Compound 2-139, 5-{4-[(3S)-3-aminopyrrolidin-1-yl]-5-(4-methyl-1H-1,3-benzodiazol-2-yl)pyridin-3-yl}-2,3-difluorobenzonitrile], the EC50 was less than 0.01 µM in assay [1], less than 0.01 µM in assay [1] (setting [3]) and 0.01 to 0.1 µM in assay [2]. The “Fold selectivity for SST5 vs SST2” value in assay [1] (SST5 over SST2, class symbols) is listed as “++ (++=100 to 499)”.
Regarding `Cc1cc(F)cc(-c2cncc(-c3nc4cc(Cl)ccc4[nH]3)c2N2CC(CN)C2)c1` [Compound 1-4, 1-{1-[3-(5-chloro-1H-1,3-benzodiazol-2-yl)-5-(3-fluoro-5-methylphenyl)pyridin-4-yl]azetidin-3-yl}methanamine], the EC50 was 0.01 to 0.1 µM in assay [1], 0.01 to 0.1 µM in assay [1] (setting [3]) and greater than 1 µM in assay [2]. For the same compound, the “Fold selectivity for SST5 vs SST2” value in assay [1] (SST5 over SST2, class symbols) was “++ (++=100 to 499)”.
Turning to `N#Cc1cc(-c2cncc(-c3nc4cccc(F)c4[nH]3)c2N2CC[C@H](N)C2)ccc1F` [Compound 2-23, 5-{4-[(3S)-3-aminopyrrolidin-1-yl]-5-(4-fluoro-1H-1,3-benzodiazol-2-yl)pyridin-3-yl}-2-fluorobenzonitrile], the EC50 in assay [1] is less than 0.01 µM; in assay [1] (setting [3]), less than 0.01 µM; in assay [2], 0.1 to 1 µM. Also, the “Fold selectivity for SST5 vs SST2” value in assay [1] (SST5 over SST2, class symbols) is “+++ (+++=≥500)”.
For `Cc1cc(F)cc(-c2cncc(-c3nc4cccc(Cl)c4[nH]3)c2N2CCC(N)CC2)c1`, the figures for the EC50 in assay [1] and in assay [2] were 0.1 to 1 µM and less than 0.01 µM, respectively. The “Fold selectivity for SST5 vs SST2” value in assay [1] (setting [4]) is 0.0008.
Consider `Cc1ccc(-c2cncc(-c3nc4c(F)ccc(F)c4[nH]3)c2N2CC[C@H](N)C2)cc1C#N` [Compound 2-49, 5-{4-[(3S)-3-aminopyrrolidin-1-yl]-5-(4,7-difluoro-1H-1,3-benzodiazol-2-yl)pyridin-3-yl}-2-methylbenzonitrile], for which the EC50 in assay [1] is less than 0.01 µM; in assay [1] (setting [3]), less than 0.01 µM; in assay [2], 0.1 to 1 µM. In assay [1] (SST5 over SST2, class symbols), the “Fold selectivity for SST5 vs SST2” value was “++ (++=100 to 499)”.
Consider `Cc1cc(F)cc2nc(-c3cncc(-c4cc(F)cc(C#N)c4)c3N3CC[C@H](N)C3)[nH]c12` [Compound 2-79, 3-{4-[(3S)-3-aminopyrrolidin-1-yl]-5-(6-fluoro-4-methyl-1H-1,3-benzodiazol-2-yl)pyridin-3-yl}-5-fluorobenzonitrile], for which the results for the EC50 in assay [1], in assay [1] (setting [3]) and in assay [2] were less than 0.01 µM, less than 0.01 µM and 0.1 to 1 µM, respectively. Further, the “Fold selectivity for SST5 vs SST2” value in assay [1] (SST5 over SST2, class symbols) was “++ (++=100 to 499)”.
In the case of `Cn1c(-c2cncc(-c3cc(F)cc(C#N)c3)c2N2CC[C@H](N)C2)nc2c(Cl)cccc21` [Compound 2-116, 3-{4-[(3S)-3-aminopyrrolidin-1-yl]-5-(4-chloro-1-methyl-1H-1,3-benzodiazol-2-yl)pyridin-3-yl}-5-fluorobenzonitrile], the EC50 in assay [1] was less than 0.01 µM; in assay [1] (setting [3]), less than 0.01 µM; in assay [2], greater than 1 µM. In addition, the “Fold selectivity for SST5 vs SST2” value in assay [1] (SST5 over SST2, class symbols) is reported as “+++ (+++=≥500)”.
`CC(N)C1(C)CN(c2c(-c3cccc(C#N)c3)cncc2-c2nc3cc(F)cc(F)c3[nH]2)C1` (centres unmarked) [Compound 1-70, 3-{4-[3-(1-aminoethyl)-3-methylazetidin-1-yl]-5-(4,6-difluoro-1H-1,3-benzodiazol-2-yl)pyridin-3-yl}benzonitrile]: the EC50 in assay [1] is less than 0.01 µM; in assay [1] (setting [3]) it was less than 0.01 µM; in assay [2], greater than 1 µM. Moreover, the “Fold selectivity for SST5 vs SST2” value in assay [1] (SST5 over SST2, class symbols) is “+++ (+++=≥500)”.
Regarding `Cc1cnc2nc(-c3cncc(-c4ccc(F)c(C#N)c4)c3N3CC[C@](C)(N)C3)[nH]c2c1` [Compound 2-170, 5-{4-[(3S)-3-amino-3-methylpyrrolidin-1-yl]-5-{6-methyl-1H-imidazo[4,5-b]pyridin-2-yl}pyridin-3-yl}-2-fluorobenzonitrile], the EC50 is less than 0.01 µM in assay [1], less than 0.01 µM in assay [1] (setting [3]) and greater than 1 µM in assay [2]. Also, the “Fold selectivity for SST5 vs SST2” value in assay [1] (SST5 over SST2, class symbols) was “+++ (+++=≥500)”.
As for `N#Cc1cc(F)cc(-c2cncc(-c3nc4c(F)ccc(F)c4[nH]3)c2N2CC[C@H](N)C2)c1` [Compound 2-38, 3-{4-[(3S)-3-aminopyrrolidin-1-yl]-5-(4,7-difluoro-1H-1,3-benzodiazol-2-yl)pyridin-3-yl}-5-fluorobenzonitrile], the EC50 in assay [1] was less than 0.01 µM; in assay [1] (setting [3]), less than 0.01 µM; in assay [2], 0.1 to 1 µM. Besides, in assay [1] (SST5 over SST2, class symbols), the “Fold selectivity for SST5 vs SST2” value was “+++ (+++=≥500)”.
Take `Cc1ccnc2nc(-c3cncc(-c4cccc(Cl)c4)c3N3CCC(N)CC3)[nH]c12`: the results for the EC50 in assay [1] and in assay [2] were greater than 1 µM and 0.01 to 0.1 µM, respectively. Moreover, in assay [1] (setting [4]), the “Fold selectivity for SST5 vs SST2” value was 0.009.

(Values after patent publication US11608335B2, “Somatostatin modulators and uses thereof” (CRINETICS PHARMACEUTICALS, INC., priority 2018, dated 2023).)
